Assay results reported in the NIST ThermoML archive (doi:10.1021/je060170c).
“And” between values parts separate entries of the source, which are not always exact repeats. Equal entries are not always repeated. ± gives the expanded uncertainty stated by the source.

Assays:
[1] = 101 kPa, Liquid; for viscosity: Anton Paar Stabinger viscometer
[2] = xn = mol fraction of the nth substance listed; settings: 101 kPa, Liquid; for viscosity: Anton Paar Stabinger viscometer

| SMILES | mass density ([1]; 288.15 K) | speed of sound ([1]; 288.15 K) | viscosity ([1]; 288.15 K) | mass density ([1]; 293.15 K) | speed of sound ([1]; 293.15 K) | viscosity ([1]; 293.15 K) | mass density ([1]; 298.15 K) | speed of sound ([1]; 298.15 K) | viscosity ([1]; 298.15 K) | mass density ([1]; 303.15 K) | speed of sound ([1]; 303.15 K) | viscosity ([1]; 303.15 K) | viscosity ([2]; 288.15 K, x2 = 0) | mass density ([2]; 288.15 K, x2 = 0) | speed of sound ([2]; 288.15 K, x2 = 0) | viscosity ([2]; 293.15 K, x2 = 0) | mass density ([2]; 293.15 K, x2 = 0) | speed of sound ([2]; 293.15 K, x2 = 0) | viscosity ([2]; 298.15 K, x2 = 0) | mass density ([2]; 298.15 K, x2 = 0) | also measured |
| --- | --- | --- | --- | --- | --- | --- | --- | --- | --- | --- | --- | --- | --- | --- | --- | --- | --- | --- | --- | --- | --- |
| Cc1ccccc1C [1,2-dimethylbenzene] | 883.285 ± 0.41 kg/m3 | 1390.3 ± 5.6 m/s | 0.871 ± 0.018 mPa·s | 879.083 ± 0.41 kg/m3 | 1369.7 ± 5.6 m/s | 0.81 ± 0.017 mPa·s | 875.532 ± 0.42 kg/m3 | 1349.4 ± 5.5 m/s | 0.756 ± 0.016 mPa·s | 870.726 ± 0.42 kg/m3 | 1328.3 ± 5.4 m/s | 0.708 ± 0.015 mPa·s | – | – | – | – | – | – | – | – | – |
| Cc1ccccc1C [1,2-dimethylbenzene] + COc1ccccc1 | – | – | – | – | – | – | – | – | – | – | – | – | 0.871 ± 0.018 mPa·s | 883.285 ± 0.41 kg/m3 | 1390.3 ± 5.6 m/s | 0.81 ± 0.017 mPa·s | 879.083 ± 0.41 kg/m3 | 1369.7 ± 5.6 m/s | 0.756 ± 0.016 mPa·s | 875.532 ± 0.42 kg/m3 | speed of sound ([2]; 298.15 K, x2 = 0): 1349.4 ± 5.5 m/s; viscosity ([2]; 303.15 K, x2 = 0): 0.708 ± 0.015 mPa·s; mass density ([2]; 303.15 K, x2 = 0): 870.726 ± 0.42 kg/m3; speed of sound ([2]; 303.15 K, x2 = 0): 1328.3 ± 5.4 m/s |
| Cc1cc(C)cc(C)c1 [1,3,5-trimethylbenzene] | 869.169 ± 0.42 kg/m3 | 1377.5 ± 5.6 m/s | 0.754 ± 0.023 mPa·s | 865.072 ± 0.43 kg/m3 | 1357 ± 5.5 m/s | 0.705 ± 0.021 mPa·s | 861.062 ± 0.44 kg/m3 | 1336.9 ± 5.5 m/s | 0.661 ± 0.02 mPa·s | 856.95 ± 0.44 kg/m3 | 1316.8 ± 5.4 m/s | 0.621 ± 0.019 mPa·s | – | – | – | – | – | – | – | – | – |
| Cc1cccc(C)c1 [1,3-dimethylbenzene] | 868.317 ± 0.37 kg/m3 | 1362.6 ± 5.5 m/s | 0.666 ± 0.014 mPa·s | 864.049 ± 0.38 kg/m3 | 1357 ± 25 m/s | 0.619 ± 0.013 mPa·s | 859.767 ± 0.38 kg/m3 | 1321 ± 5.4 m/s | 0.581 ± 0.012 mPa·s | 855.469 ± 0.39 kg/m3 | 1300.3 ± 5.3 m/s | 0.552 ± 0.011 mPa·s | – | – | – | – | – | – | – | – | – |
| Cc1cccc(C)c1 [1,3-dimethylbenzene] + COc1ccccc1 | – | – | – | – | – | – | – | – | – | – | – | – | 0.666 ± 0.014 mPa·s | 868.317 ± 0.37 kg/m3 | 1362.6 ± 5.5 m/s | 0.619 ± 0.013 mPa·s | 864.049 ± 0.38 kg/m3 | 1343.4 ± 5.4 m/s | 0.581 ± 0.012 mPa·s | 859.767 ± 0.38 kg/m3 | speed of sound ([2]; 298.15 K, x2 = 0): 1321 ± 5.4 m/s; viscosity ([2]; 303.15 K, x2 = 0): 0.552 ± 0.011 mPa·s; mass density ([2]; 303.15 K, x2 = 0): 855.469 ± 0.39 kg/m3; speed of sound ([2]; 303.15 K, x2 = 0): 1300.3 ± 5.3 m/s |
| Cc1ccc(C)cc1 [1,4-dimethylbenzene] | 865.253 ± 0.37 kg/m3 | 1352 ± 5.5 m/s | 0.701 ± 0.021 mPa·s | 860.917 ± 0.38 kg/m3 | 1331.1 ± 5.4 m/s | 0.65 ± 0.02 mPa·s | 856.617 ± 0.39 kg/m3 | 1310 ± 5.3 m/s | 0.611 ± 0.018 mPa·s | 852.255 ± 0.39 kg/m3 | 1289.7 ± 5.3 m/s | 0.576 ± 0.017 mPa·s | – | – | – | – | – | – | – | – | – |
| Cc1ccc(C)cc1 [1,4-dimethylbenzene] + COc1ccccc1 | – | – | – | – | – | – | – | – | – | – | – | – | 0.701 ± 0.021 mPa·s | 865.253 ± 0.37 kg/m3 | 1352 ± 5.5 m/s | 0.65 ± 0.02 mPa·s | 860.917 ± 0.38 kg/m3 | 1331.1 ± 5.4 m/s | 0.611 ± 0.018 mPa·s | 856.617 ± 0.39 kg/m3 | speed of sound ([2]; 298.15 K, x2 = 0): 1310 ± 5.3 m/s; viscosity ([2]; 303.15 K, x2 = 0): 0.576 ± 0.017 mPa·s; mass density ([2]; 303.15 K, x2 = 0): 852.255 ± 0.39 kg/m3; speed of sound ([2]; 303.15 K, x2 = 0): 1289.7 ± 5.3 m/s |
| COc1ccccc1 [anisole] | 998.441 ± 0.23 kg/m3 and 998.44 ± 0.23 kg/m3 | 1449.1 ± 5.8 m/s | 1.188 ± 0.024 mPa·s | 993.649 ± 0.23 kg/m3 and 993.653 ± 0.23 kg/m3 and 993.651 ± 0.23 kg/m3 | 1428.5 ± 5.7 m/s | 1.084 ± 0.022 mPa·s | 989.106 ± 0.24 kg/m3 [middle of 4 runs] | 1408 ± 5.7 m/s | 1.017 ± 0.021 mPa·s | 984.372 ± 0.24 kg/m3 and 984.37 ± 0.25 kg/m3 and 984.374 ± 0.24 kg/m3 | 1387.7 ± 5.6 m/s and 1386.7 ± 5.6 m/s | 0.931 ± 0.019 mPa·s | – | – | – | – | – | – | – | – | – |
| COc1ccccc1 [anisole] + Cc1cc(C)cc(C)c1 | – | – | – | – | – | – | – | – | – | – | – | – | – | – | – | – | – | – | – | – | viscosity ([2]; 288.15 K, x1 = 1): 1.188 ± 0.036 mPa·s; mass density ([2]; 288.15 K, x1 = 1): 998.44 ± 0.23 kg/m3; speed of sound ([2]; 288.15 K, x1 = 1): 1449.1 ± 5.8 m/s; viscosity ([2]; 293.15 K, x1 = 1): 1.084 ± 0.033 mPa·s; mass density ([2]; 293.15 K, x1 = 1): 993.651 ± 0.23 kg/m3; speed of sound ([2]; 293.15 K, x1 = 1): 1428.5 ± 5.7 m/s; viscosity ([2]; 298.15 K, x1 = 1): 1.017 ± 0.031 mPa·s; mass density ([2]; 298.15 K, x1 = 1): 989.106 ± 0.24 kg/m3; speed of sound ([2]; 298.15 K, x1 = 1): 1408 ± 5.7 m/s; viscosity ([2]; 303.15 K, x1 = 1): 0.931 ± 0.028 mPa·s; mass density ([2]; 303.15 K, x1 = 1): 984.37 ± 0.25 kg/m3; speed of sound ([2]; 303.15 K, x1 = 1): 1386.7 ± 5.6 m/s |
| c1ccccc1 [benzene] | 884.184 ± 0.35 kg/m3 | 1347.2 ± 5.5 m/s | 0.709 ± 0.015 mPa·s | 877.43 ± 0.36 kg/m3 | 1323.3 ± 5.4 m/s | 0.648 ± 0.013 mPa·s | 873.58 ± 0.36 kg/m3 | 1299.7 ± 5.3 m/s | 0.604 ± 0.012 mPa·s | 868.174 ± 0.37 kg/m3 | 1276.4 ± 5.2 m/s | 0.571 ± 0.012 mPa·s | – | – | – | – | – | – | – | – | – |
| c1ccccc1 [benzene] + COc1ccccc1 | – | – | – | – | – | – | – | – | – | – | – | – | 0.709 ± 0.015 mPa·s | 884.184 ± 0.35 kg/m3 | 1347.2 ± 5.5 m/s | 0.648 ± 0.013 mPa·s | 877.43 ± 0.36 kg/m3 | 1323.3 ± 5.4 m/s | 0.604 ± 0.012 mPa·s | 873.58 ± 0.36 kg/m3 | speed of sound ([2]; 298.15 K, x2 = 0): 1299.7 ± 5.3 m/s; viscosity ([2]; 303.15 K, x2 = 0): 0.571 ± 0.012 mPa·s; mass density ([2]; 303.15 K, x2 = 0): 868.174 ± 0.37 kg/m3; speed of sound ([2]; 303.15 K, x2 = 0): 1276.4 ± 5.2 m/s |
| Cc1ccccc1 [toluene] | 871.412 ± 0.33 kg/m3 | 1350 ± 5.4 m/s | 0.63 ± 0.013 mPa·s | 866.874 ± 0.34 kg/m3 | 1327.2 ± 5.4 m/s | 0.588 ± 0.012 mPa·s | 862.2 ± 0.35 kg/m3 | 1305.4 ± 5.3 m/s | 0.556 ± 0.011 mPa·s | 857.464 ± 0.35 kg/m3 | 1283.8 ± 5.2 m/s | 0.523 ± 0.011 mPa·s | – | – | – | – | – | – | – | – | – |
| Cc1ccccc1 [toluene] + COc1ccccc1 | – | – | – | – | – | – | – | – | – | – | – | – | 0.63 ± 0.013 mPa·s | 871.412 ± 0.33 kg/m3 | 1350 ± 5.4 m/s | 0.588 ± 0.012 mPa·s | 866.874 ± 0.34 kg/m3 | 1327.2 ± 5.4 m/s | 0.556 ± 0.011 mPa·s | 862.2 ± 0.35 kg/m3 | speed of sound ([2]; 298.15 K, x2 = 0): 1305.4 ± 5.3 m/s; viscosity ([2]; 303.15 K, x2 = 0): 0.523 ± 0.011 mPa·s; mass density ([2]; 303.15 K, x2 = 0): 857.464 ± 0.35 kg/m3; speed of sound ([2]; 303.15 K, x2 = 0): 1283.8 ± 5.2 m/s |
